Experimental data as given in patent US11472791B2 (Incyte Corporation, priority 2019, dated 2022).

Each molecule was assayed against CDK2/Cyclin E1 (Homo sapiens (Human), UniProt P24941) (assay: CDK2/Cyclin E1 HTRF enzyme activity assay). Conditions: 1 mM ATP.
Assay type: biochemical
Procedure: Assays are conducted in white 384-well polystyrene plates in a final reaction volume of 8 μL. […] HTRF signals are read after 1 hour at room temperature on a PHERAstar FS plate reader (BMG Labtech). Data is analyzed with IDBS XLFit and GraphPad Prism 5.0 software using a three or four parameter dose response curve to determine IC50 for each compound.

IC50, < 50 nM:
[2H]C([2H])([2H])NCc1ccc(-n2cc(-c3nc(NC4CCN(S(C)(=O)=O)CC4)ncc3C(F)(F)F)cn2)c(C)c1 [Example 128, 4-(1-(2-Methyl-4-(((methyl-d3)amino)methyl)phenyl)-1H-pyrazol-4-yl)-N-(1-(methylsulfonyl)piperidin-4-yl)-5-(trifluoromethyl)pyrimidin-2-amine]
[2H]C([2H])([2H])NCc1ccc(-n2cc(-c3nc(NC4CCN(S(=O)(=O)CC)CC4)ncc3C(F)(F)F)cn2)c(C)c1 [Example 129, N-(1-(Ethylsulfonyl)piperidin-4-yl)-4-(1-(2-methyl-4-(((methyl-d3)amino)methyl)phenyl)-1H-pyrazol-4-yl)-5-(trifluoromethyl)pyrimidin-2-amine]
[2H]C([2H])([2H])NCc1ccc(-n2cc(-c3nc(NC4CCN(S(=O)(=O)C5CC5)CC4)ncc3C(F)(F)F)cn2)c(C)c1 [Example 130, N-(1-(Cyclopropylsulfonyl)piperidin-4-yl)-4-(1-(2-methyl-4-(((methyl-d3)amino)methyl)phenyl)-1H-pyrazol-4-yl)-5-(trifluoromethyl)pyrimidin-2-amine]
[2H]C([2H])([2H])NCc1ccc(-n2cc(-c3nc(NC4CCN(S(=O)(=O)c5ccn(C)n5)CC4)ncc3C(F)(F)F)cn2)c(C)c1 [Example 131, N-(1-((1-Methyl-1H-pyrazol-3-yl)sulfonyl)piperidin-4-yl)-4-(1-(2-methyl-4-(((methyl-d3)amino)methyl)phenyl)-1H-pyrazol-4-yl)-5-(trifluoromethyl)pyrimidin-2-amine]
[2H]C([2H])([2H])NCc1ccc(-n2cc(-c3nc(N[C@H]4CCN(S(C)(=O)=O)C[C@H]4F)ncc3C(F)(F)F)cn2)c(C)c1 [Example 132, N-((3R,4S)-3-Fluoro-1-(methylsulfonyl)piperidin-4-yl)-4-(1-(2-methyl-4-(((methyl-d3)amino)methyl)phenyl)-1H-pyrazol-4-yl)-5-(trifluoromethyl)pyrimidin-2-amine]
[2H]C([2H])([2H])NCc1ccc(-n2cc(-c3nc(N[C@H]4CCN(S(=O)(=O)C5CC5)C[C@H]4F)ncc3C(F)(F)F)cn2)c(C)c1 [Example 133, N-((3R,4S)-1-(Cyclopropylsulfonyl)-3-fluoropiperidin-4-yl)-4-(1-(2-methyl-4-(((methyl-d3)amino)methyl)phenyl)-1H-pyrazol-4-yl)-5-(trifluoromethyl)pyrimidin-2-amine]
[2H]C([2H])([2H])NCc1ccc(-n2cc(-c3nc(NC4CCN(S(C)(=O)=O)CC4)ncc3Cl)cn2)c(Cl)c1 [Example 134, 5-Chloro-4-(1-(2-chloro-4-(((methyl-d3)amino)methyl)phenyl)-1H-pyrazol-4-yl)-N-(1-(methylsulfonyl)piperidin-4-yl)pyrimidin-2-amine]
[2H]C([2H])([2H])NCc1ccc(-n2cc(-c3nc(NC4CCN(S(=O)(=O)C5CC5)CC4)ncc3Cl)cn2)c(Cl)c1 [Example 135, 5-Chloro-4-(1-(2-chloro-4-(((methyl-d3)amino)methyl)phenyl)-1H-pyrazol-4-yl)-N-(1-(cyclopropylsulfonyl)piperidin-4-yl)pyrimidin-2-amine]
[2H]C([2H])([2H])NCc1ccc(-n2cc(-c3nc(NC4CCN(S(=O)(=O)c5cn(C)cn5)CC4)ncc3Cl)cn2)c(C)c1 [Example 136, 5-Chloro-N-(1-((1-methyl-1H-imidazol-4-yl)sulfonyl)piperidin-4-yl)-4-(1-(2-methyl-4-(((methyl-d3)amino)methyl)phenyl)-1H-pyrazol-4-yl)pyrimidin-2-amine]
[2H]C([2H])([2H])NCc1ccc(-n2cc(-c3nc(NC4CCN(S(=O)(=O)c5ccn(C)n5)CC4)ncc3Cl)cn2)c(C)c1 [Example 137, 5-Chloro-N-(1-((1-methyl-1H-pyrazol-3-yl)sulfonyl)piperidin-4-yl)-4-(1-(2-methyl-4-(((methyl-d3)amino)methyl)phenyl)-1H-pyrazol-4-yl)pyrimidin-2-amine]
[2H]C([2H])([2H])NCc1ccc(-n2cc(-c3nc(NC4CCN(S(=O)(=O)CC)CC4)ncc3C#N)cn2)c(Cl)c1 [Example 139, 4-(1-(2-Chloro-4-(((methyl-d3)amino)methyl)phenyl)-1H-pyrazol-4-yl)-2((1-(ethylsulfonyl)piperidin-4-yl)amino)pyrimidine-5-carbonitrile]
[2H]C(NC([2H])([2H])[2H])c1ccc(-n2cc(-c3nc(NC4CCN(S(=O)(=O)CC)CC4)ncc3C#N)cn2)c(Cl)c1 (stereo not drawn) [Example 140, 4-(1-(2-Chloro-4-(((methyl-d3)amino)methyl-d)phenyl)-1H-pyrazol-4-yl)-2-((1-(ethylsulfonyl)piperidin-4-yl)amino)pyrimidine-5-carbonitrile]
[2H]C([2H])([2H])NCc1ccc(-n2cc(-c3nc(NC4CCN(S(=O)(=O)C5CC5)CC4)ncc3C#N)cn2)c(Cl)c1 [Example 141, 4-(1-(2-Chloro-4-(((methyl-d3)amino)methyl)phenyl)-1H-pyrazol-4-yl)-2-((1-(cyclopropylsulfonyl)piperidin-4-yl)amino)pyrimidine-5-carbonitrile]
[2H]C([2H])([2H])NCc1ccc(-n2cc(-c3nc(NC4CCN(S(=O)(=O)c5ccn(C)n5)CC4)ncc3C#N)cn2)c(Cl)c1 [Example 142, 4-(1-(2-Chloro-4-(((methyl-d3)amino)methyl)phenyl)-1H-pyrazol-4-yl)-2-((1-((1-methyl-1H-pyrazol-3-yl)sulfonyl)piperidin-4-yl)amino)pyrimidine-5-carbonitrile]
[2H]C([2H])([2H])NCc1ccc(-n2cc(-c3nc(N[C@H]4CCN(S(C)(=O)=O)C[C@H]4F)ncc3C#N)cn2)c(Cl)c1 [Example 143, 4-(1-(2-Chloro-4-(((methyl-d3)amino)methyl)phenyl)-1H-pyrazol-4-yl)-2-(((3R,4S)-3-fluoro-1-(methylsulfonyl)piperidin-4-yl)amino)pyrimidine-5-carbonitrile]
[2H]C([2H])([2H])NCc1ccc(-n2cc(-c3nc(N[C@H]4CCN(S(=O)(=O)CC)C[C@H]4F)ncc3C#N)cn2)c(Cl)c1 [Example 144, 4-(1-(2-Chloro-4-(((methyl-d3)amino)methyl)phenyl)-1H-pyrazol-4-yl)-2-(((3R,4S)-1-(ethylsulfonyl)-3-fluoropiperidin-4-yl)amino)pyrimidine-5-carbonitrile]
[2H]C([2H])([2H])NCc1ccc(-n2cc(-c3nc(N[C@H]4CCN(S(=O)(=O)C5CC5)C[C@H]4F)ncc3C#N)cn2)c(Cl)c1 [Example 145, 4-(1-(2-Chloro-4-(((methyl-d3)amino)methyl)phenyl)-1H-pyrazol-4-yl)-2-(((3R,4S)-1-(cyclopropylsulfonyl)-3-fluoropiperidin-4-yl)amino)pyrimidine-5-carbonitrile]
[2H]C([2H])([2H])NCc1ccc(-n2cc(-c3nc(N[C@H]4CCN(S(=O)(=O)C5CC5)C[C@H]4C)ncc3C#N)cn2)c(Cl)c1 [Example 146, 4-(1-(2-Chloro-4-(((methyl-d3)amino)methyl)phenyl)-1H-pyrazol-4-yl)-2-(((3R,4S)-1-(cyclopropylsulfonyl)-3-methylpiperidin-4-yl)amino)pyrimidine-5-carbonitrile]
[2H]C([2H])([2H])NCc1ccc(-n2cc(-c3nc(N[C@H]4CCN(S(=O)(=O)c5ccn(C)n5)C[C@H]4C)ncc3C#N)cn2)c(Cl)c1 [Example 147, 4-(1-(2-Chloro-4-(((methyl-d3)amino)methyl)phenyl)-1H-pyrazol-4-yl)-2-(((3R,4S)-3-methyl-1-((1-methyl-1H-pyrazol-3-yl)sulfonyl)piperidin-4-yl)amino)pyrimidine-5-carbonitrile]
[2H]C([2H])([2H])NCc1ccc(-n2cc(-c3nc(N[C@H]4CCN(S(=O)(=O)c5cn(C)cn5)C[C@H]4C)ncc3C#N)cn2)c(Cl)c1 [Example 148, 4-(1-(2-Chloro-4-(((methyl-d3)amino)methyl)phenyl)-1H-pyrazol-4-yl)-2-(((3R,4S)-3-methyl-1-((1-methyl-1H-imidazol-4-yl)sulfonyl)piperidin-4-yl)amino)pyrimidine-5-carbonitrile]
[2H]C([2H])([2H])NCc1ccc(-n2cc(-c3nc(NC4CCN(S(=O)(=O)c5cnn(C)c5)CC4)ncc3C#N)cn2)c(C)n1 [Example 149, 2-((1-((1-Methyl-1H-pyrazol-4-yl)sulfonyl)piperidin-4-yl)amino)-4-(1-(2-methyl-6-(((methyl-d3)amino)methyl)pyridin-3-yl)-1H-pyrazol-4-yl)pyrimidine-5-carbonitrile]
[2H]C([2H])([2H])NCc1ccc(-n2cc(-c3nc(N[C@H]4CCN(S(=O)(=O)c5cn(C)cn5)C[C@H]4C)ncc3C#N)cn2)c(C)n1 [Example 150, 2-(((3R,4S)-3-Methyl-1-((1-methyl-1H-imidazol-4-yl)sulfonyl)piperidin-4-yl)amino)-4-(1-(2-methyl-6-(((methyl-d3)amino)methyl)pyridin-3-yl)-1H-pyrazol-4-yl)pyrimidine-5-carbonitrile]
Cc1nc(CNC(C)C)ccc1-n1cc(-c2nc(NC3CCN(S(=O)(=O)c4cn(C)cn4)CC3)ncc2C#N)cn1 [Example 151, 4-(1-(6-((Isopropylamino)methyl)-2-methylpyridin-3-yl)-1H-pyrazol-4-yl)-2-((1-((1-methyl-1H-imidazol-4-yl)sulfonyl)piperidin-4-yl)amino)pyrimidine-5-carbonitrile]
Cc1nc(CNC(C)(C)C)ccc1-n1cc(-c2nc(NC3CCN(S(=O)(=O)c4cn(C)cn4)CC3)ncc2C#N)cn1 [Example 152, 4-(1-(6-((tert-Butylamino)methyl)-2-methylpyridin-3-yl)-1H-pyrazol-4-yl)-2-((1-((1-methyl-1H-imidazol-4-yl)sulfonyl)piperidin-4-yl)amino)pyrimidine-5-carbonitrile]
